# US20220088024A1, “METHODS FOR TREATING CANCER USING TOZADENANT” (Biotie Therapies, Inc., priority 2018, published 2022)
# Where “and” joins values, the source holds several entries; their conditions need not be identical. Equal values may be shown once. Read-outs that look alike come from different tables or passages of the source.
# What was measured:
# [1] = test system: AT-3ova CD73+ tumour (mouse breast carcinoma cell line AT-3); assay: Example 2: anti-tumor responses of SYN-115 in the AT-3ova CD73+ tumour cell mouse model (tumor area); assay type: in vivo, C57/BL6 mice
# Description: (§1) The C57BL/6 mouse breast carcinoma cell line AT-3 was obtained from Dr. Trina Stewart (Griffith University, Nathan, QLD, Australia. Tumor cell lines were transduced to express chicken ovalbumin peptide and CD73 as previously described (1, 2, 3). Tumor cells are periodically verified to be Mycoplasma negative by the Victorian Infectious Diseases References Lab (Melbourne, VIC, Australia) by PCR analysis. Tumor cells were grown in DMEM supplemented with 10% FCS, GlutaMAX, and penicillin/streptomycin. 5×10^5 cells were resuspended in PBS and injected s.c. into C57/BL6 mice in a 100 μL volume. At day 14 tumors were measured and mice were randomized into distinct treatment groups to ensure that each group had tumors of similar size at the onset of treatment. Mice were treated i.p. at days 14, 18, 22, and 26 with either isotype control (2A3; 200 μg/mouse) or anti-PD-1 mAb (RMP1-14, 200 μg/mouse) and where indicated, SYN-115 (Batch 71236AA002) at the indicated dose or vehicle control once-daily via oral gavage on days 14 to 29. To calculate a dose of SYN-115 mouse weight was estimated to be 20 g per mouse. Therefore, 100 mg/kg=2 mg per mouse in 200 μL, which is equivalent to 10 mg/ml. To make up 40 mL, 400 milligrams of SYN-115 was weighed and added into a Falcon tube, then 1 mL of Tween 80 was added and mixed into a paste and then 39 mL of 1% Methyl Cellulose was added. The solution was vortexed and then left on rotating mixer for at least 2 hours and maintained at 4° C. Tumor measurements were taken 2-3 times per week. Tumor sizes were determined by width * length and mice were culled when tumors reached the ethical limit of 150 mm^2.
# [2] = Example 13: calculation of predicted human dose from mouse and human PK; details: for AUC: mouse, plasma
# Description: Using the PK data above in mice and humans, a human efficacious dose was estimated by identifying a dose in humans that would result in plasma exposures similar to the efficacious dose in the oncology models in mice. The 100 mg/kg/day dose studied for PK in mice and the 180 mg dose studied for PK in humans were the relevant doses used in this estimation.
# This predicted human efficacious dose for tozadenant for treating cancer based on the measured PK data can be contrasted to the predicted dose that would be calculated by the less informed but standard approach of using body surface area comparisons between mice and humans, whereby the equivalent dose in humans would be calculated by dividing the dose in mice by 12.3 (see, e.g., Nair A B, Jacob S. A simple practice guide for dose conversion between animals and human. J Basic Clin Pharma 2016;7:27-31). This approach would result in a predicted efficacious dose of 0.24 mg/kg in humans, which is equivalent to approximately 17 mg in a typical 70 kg human. Thus, this prediction using the standard method results in a targeted human dose more than an order of magnitude higher than the one informed by PK.
# [3] = test system: AT-3ova CD73+ tumour (mouse breast carcinoma cell line AT-3); assay: Example 3: anti-tumor responses of SYN-115 QD or BID in the AT-3ova CD73+ tumour cell mouse model (tumor area); assay type: in vivo, C57/BL6 mice; set-up: key to Raw Tumor Measurements: tumor area, width × length in mm^2
# Description: as §1, with “and where indicated SYN-115 (Batch” for “and where indicated, SYN-115 (Batch”, “vehicle control once or twice-daily via oral” for “vehicle control once-daily via oral”, “in […] which is” for “in 200 μL, which is”, “left on a rotating mixer” for “left on rotating mixer”
structure (smiles),measurement,setting,value
"COc1ccc(N2CCOCC2)c2sc(NC(=O)N3CCC(C)(O)CC3)nc12 [SYN-115, 4-hydroxy-4-methyl-piperidine-1-carboxylic acid (4-methoxy-7-morpholin-4-yl-benzothiazol-2-yl)-amide]",Tumor size (width * length),"[1]; 2A3 (200 μg/Mouse)+SYN-115 (100 mg/kg), Day 39",123.2 mm^2 and 91.35 mm^2 and 103.88 mm^2
same,Tumor size (width * length),"[1]; 2A3 (200 μg/Mouse)+SYN-115 (100 mg/kg), Day 45",143 mm^2
same,Tumor size (width * length),"[1]; Anti-PD-1 (200 ug)+SYN-115 (10 mg/kg), Day 50",48.38 mm^2 and 66.22 mm^2
same,Tumor size (width * length),"[1]; Anti-PD-1 (200 ug)+SYN-115 (10 mg/kg), Day 53",53.6 mm^2 and 83.72 mm^2
same,Tumor size (width * length),"[1]; Anti-PD-1 (200 ug)+SYN-115 (10 mg/kg), Day 57",63.19 mm^2 and 81.6 mm^2
same,Tumor size (width * length),"[1]; Anti-PD-1 (200 ug)+SYN-115 (10 mg/kg), Day 60",72.72 mm^2 and 80.04 mm^2
same,Tumor size (width * length),"[1]; Anti-PD-1 (200 ug)+SYN-115 (10 mg/kg), Day 64",91.64 mm^2 and 104.86 mm^2
same,Tumor size (width * length),"[1]; Anti-PD-1 (200 ug)+SYN-115 (10 mg/kg), Day 68",121.26 mm^2
same,Tumor size (width * length),"[1]; Anti-PD-1 (200 ug)+SYN-115 (30 mg/kg), Day 57",75.24 mm^2 and 44.22 mm^2
same,Tumor size (width * length),"[1]; Anti-PD-1 (200 ug)+SYN-115 (30 mg/kg), Day 60",89.25 mm^2 and 48.28 mm^2
same,Tumor size (width * length),"[1]; Anti-PD-1 (200 ug)+SYN-115 (30 mg/kg), Day 64",107.1 mm^2 and 69.52 mm^2
same,Tumor size (width * length),"[1]; Anti-PD-1 (200 ug)+SYN-115 (30 mg/kg), Day 68",92.22 mm^2
same,Tumor size (width * length),"[1]; Anti-PD-1 (200 ug)+SYN-115 (100 mg/kg), Day 45",101 mm^2 and 129.71 mm^2 and 75.84 mm^2
same,Tumor size (width * length),"[1]; Anti-PD-1 (200 ug)+SYN-115 (100 mg/kg), Day 50",136.4 mm^2
same,AUC,"[2]; oral, mice, 3 mg/kg efficacious dose, read-out: Point estimate AUC (linear extrapolation)",~106 ng·h/mL
same,AUC,"[2]; 2 mg/kg dose in mice, read-out: Target AUC in humans",71 ng·h/mL
same,Predicted human dose achieving target AUC,[2]; target AUC of 71 hr*ng/mL (2 mg/kg mouse dose),approximately 0.6 mg
same,Predicted human dose achieving target AUC,[2]; target AUC of 106 hr*ng/mL (3 mg/kg mouse dose),approximately 0.9 mg
same,Tumor size (width * length),"[3]; 2A3 (200 ug/mouse)+SYN-115 (100 mg/kg) QD, Day 0",19.38 mm^2 and 14.96 mm^2 and 20 mm^2 and 24.38 mm^2 and 13.26 mm^2 and 18.9 mm^2
same,Tumor size (width * length),"[3]; 2A3 (200 ug/mouse)+SYN-115 (100 mg/kg) QD, Day 31",73.1 mm^2
same,Tumor size (width * length),"[3]; 2A3 (200 ug/mouse)+SYN-115 (100 mg/kg) QD, Day 34",74.82 mm^2
same,Tumor size (width * length),"[3]; 2A3 (200 ug/mouse)+SYN-115 (100 mg/kg) QD, Day 39",86.45 mm^2
same,Tumor size (width * length),"[3]; 2A3 (200 ug/mouse)+SYN-115 (100 mg/kg) QD, Day 42",129.87 mm^2
same,Raw Tumor Measurements,"[3]; Anti-PD-1 (200 ug)+SYN-115 (30 mg/kg) BID, Day 0",12.6 and 15.54 and 22 and 16.38 and 22.68 and 18.36
same,Raw Tumor Measurements,"[3]; Anti-PD-1 (200 ug)+SYN-115 (30 mg/kg) BID, Day 17",44.08 and 44.22 and 73.92 and 38.86 and 63.24 and 66.64
same,Raw Tumor Measurements,"[3]; Anti-PD-1 (200 ug)+SYN-115 (30 mg/kg) BID, Day 31",111.28 and 64.74
same,Raw Tumor Measurements,"[3]; Anti-PD-1 (200 ug)+SYN-115 (30 mg/kg) BID, Day 34",73.1
same,Raw Tumor Measurements,"[3]; Anti-PD-1 (200 ug)+SYN-115 (30 mg/kg) BID, Day 39",69.6
same,Raw Tumor Measurements,"[3]; Anti-PD-1 (200 ug)+SYN-115 (30 mg/kg) BID, Day 42",99.51
same,Raw Tumor Measurements,"[3]; Anti-PD-1 (200 ug)+SYN-115 (30 mg/kg) BID, Day 44",114.33
same,Tumor size (width * length),"[3]; Anti-PD-1 (200 ug)+SYN-115 (30 mg/kg) QD, Day 28",58.5 mm^2 and 63.99 mm^2 and 113.1 mm^2
same,Tumor size (width * length),"[3]; Anti-PD-1 (200 ug)+SYN-115 (30 mg/kg) QD, Day 31",57.76 mm^2 and 74.82 mm^2
same,Tumor size (width * length),"[3]; Anti-PD-1 (200 ug)+SYN-115 (30 mg/kg) QD, Day 34",72.8 mm^2 and 93.06 mm^2
same,Tumor size (width * length),"[3]; Anti-PD-1 (200 ug)+SYN-115 (30 mg/kg) QD, Day 39",83.42 mm^2 and 127 mm^2
same,Tumor size (width * length),"[3]; Anti-PD-1 (200 ug)+SYN-115 (30 mg/kg) QD, Day 42",127.53 mm^2
same,Raw Tumor Measurements,"[3]; Anti-PD-1 (200 ug)+SYN-115 (100 mg/kg) BID, Day 0",16.28 and 15.96 and 20.46 and 16.8 and 24.12 and 12.24
same,Raw Tumor Measurements,"[3]; Anti-PD-1 (200 ug)+SYN-115 (100 mg/kg) BID, Day 22",49.92 and 83.7 and 67.45 and 51.48 and 75.64 and 82.39
same,Raw Tumor Measurements,"[3]; Anti-PD-1 (200 ug)+SYN-115 (100 mg/kg) BID, Day 28",66.96 and 98.79 and 88.4 and 132.3 and 118.34
same,Raw Tumor Measurements,"[3]; Anti-PD-1 (200 ug)+SYN-115 (100 mg/kg) BID, Day 31",79.38 and 102.08 and 109.44
same,Raw Tumor Measurements,"[3]; Anti-PD-1 (200 ug)+SYN-115 (100 mg/kg) BID, Day 34",99.36
same,Raw Tumor Measurements,"[3]; Anti-PD-1 (200 ug)+SYN-115 (100 mg/kg) BID, Day 39",103.55
same,Raw Tumor Measurements,"[3]; Anti-PD-1 (200 ug)+SYN-115 (100 mg/kg) QD, Day 0",14.82 and 14.76 and 15.17 and 15.12 and 23.78
same,Raw Tumor Measurements,"[3]; Anti-PD-1 (200 ug)+SYN-115 (100 mg/kg) QD, Day 9",29.07 and 25 and 29.68 and 26 and 34.78 and 29.25
same,Raw Tumor Measurements,"[3]; Anti-PD-1 (200 ug)+SYN-115 (100 mg/kg) QD, Day 13",32.45 and 39.33 and 38.19 and 25.48 and 40.7 and 33.5
same,Raw Tumor Measurements,"[3]; Anti-PD-1 (200 ug)+SYN-115 (100 mg/kg) QD, Day 15",39.33 and 42 and 44.2 and 32.86 and 50.74 and 25.85
same,Raw Tumor Measurements,"[3]; Anti-PD-1 (200 ug)+SYN-115 (100 mg/kg) QD, Day 17",39.53 and 44.4 and 48 and 31.35 and 52.92 and 44.73
same,Raw Tumor Measurements,"[3]; Anti-PD-1 (200 ug)+SYN-115 (100 mg/kg) QD, Day 20",48.28 and 61.56 and 66.6 and 48.99 and 61.2 and 51.2
same,Raw Tumor Measurements,"[3]; Anti-PD-1 (200 ug)+SYN-115 (100 mg/kg) QD, Day 24",51.83 and 72.98 and 86.92 and 53.96 and 85.05 and 46.8
same,Raw Tumor Measurements,"[3]; Anti-PD-1 (200 ug)+SYN-115 (100 mg/kg) QD, Day 28",55.2 and 90.09 and 97.9 and 77.44 and 95.04 and 77.19
same,Raw Tumor Measurements,"[3]; Anti-PD-1 (200 ug)+SYN-115 (100 mg/kg) QD, Day 31",74.82 and 128.76 and 81.7 and 101.37 and 79.9
same,Raw Tumor Measurements,"[3]; Anti-PD-1 (200 ug)+SYN-115 (100 mg/kg) QD, Day 34",79.05 and 95.06 and 81.32
same,Raw Tumor Measurements,"[3]; Anti-PD-1 (200 ug)+SYN-115 (100 mg/kg) QD, Day 39",81.9 and 104.86 and 82.95
same,Raw Tumor Measurements,"[3]; Anti-PD-1 (200 ug)+SYN-115 (100 mg/kg) QD, Day 42",127.33 and 132.24
